Experimental findings from a melting point compilation (Tetko et al.) are described below.

Regarding `CCOC(=O)c1c(N)sc(C(=O)OC)c1CC(=O)OC`, the melting point was in the range of 168 to 170 °C. Regarding `Cc1cc(NC(=O)c2ccccc2I)sc1C(=O)O`, the melting point fell in the range of 202 to 204 °C. `c1cc2c(cn1)ncn2C1CC1` registered a melting point of 53 to 55 °C.

`CS(=O)(=O)Cc1ccc(Cl)cc1S(=O)(=O)Cl` registered a melting point of 103 to 105 °C. In the case of `Nc1ccc(-c2nnco2)cc1`, the melting point lay in the range of 155 to 157 °C. Regarding `Cc1[nH]c(C(=O)O)c(C)c1C(=O)OC(C)C`, the melting point was in the range of 183 to 185 °C. For `N#Cc1cccc(Br)c1N=C=O`, the melting point is 64 to 66 °C. As to `CCS(=O)(=O)NC(C)C(=O)O` (stereo not given), the melting point lay in the range of 129 to 131 °C. On to `O=C(O)c1ccc(Cl)c(S(=O)(=O)NCC2CCCO2)c1` (stereo not given), for which the melting point was 207 to 209 °C. For the compound `CC12CCCC(C(=O)O)(CCC1)C2`, the melting point was 144 to 146 °C. Under `CN1C(=O)CNC1=O` stands 177 to 179 °C; under `CN1C(=O)CCc2cc(C(=O)O)ccc21`, 209 to 211 °C. In turn, `CN(C(=O)CCl)C1(C#N)CCCCC1` had a melting point of 86 to 90 °C. Under `Clc1ccc2nnc(C3CCCO3)n2n1` (stereo not given) stands 139 to 141 °C; under `Cc1nc(-c2ccc(O)cc2)no1`, 186 to 188 °C; under `Cn1nc(Br)c(=O)n(C)c1=O`, 95 to 97 °C.

As for `O=C(O)c1cccc(S(=O)(=O)NCC2CCCO2)c1` (stereo not given), the melting point was in the range of 157 to 161 °C.

`CC(N)c1cc(F)ccc1N1CCC(O)CC1` (stereo not given): the melting point lay within 138 to 140 °C. `CCc1ccccc1NC(=O)CCl` gave a melting point of 106 to 108 °C. Take `NC(=O)COc1ccc(Cl)cc1S(N)(=O)=O`: the melting point fell in the range of 214 to 216 °C.

With `O=Cc1cc2c(cc1[N+](=O)[O-])OCCO2`, the melting point is 169 to 171 °C. Regarding `Cc1nscc1C(=O)O`, the melting point was in the range of 219 to 221 °C. In the case of `Sc1nc(-c2ccccc2)ns1` it was 161 to 163 °C; in that of `O=C(CCl)N1CCSc2ccccc21`, 53 to 55 °C; in that of `O=S(=O)(CCCBr)c1ccc(F)cc1`, 36 to 38 °C. As for `COC(=O)c1cccc(CC(=O)O)c1`, the melting point was 74 to 76 °C. In turn, `Nc1nc2cc3c(cc2s1)OCCO3` gave a melting point of 203 to 205 °C. With `CCOC(=O)c1nnc(N)s1`, the melting point was 197 to 199 °C.

`CC(C)(C)OC(=O)N1CCCC(C(=O)O)C1` (stereo not given): the melting point was in the range of 160 to 162 °C. As to `NC(=O)c1cc(C(=O)O)c[nH]1`, the melting point was in the range of 344 to 346 °C. Compound `O=C(O)c1ccc(COc2ccc(Br)cc2)o1` showed a melting point of 194 to 196 °C. The compound `Nc1ncc2c(n1)CCC1(C2)OCCO1` returned a melting point of 215 to 217 °C. In the case of `O=C(CC(F)(F)F)c1ccc(Br)cc1` it was 73 to 75 °C. As for `Cn1nccc1CO`, the melting point fell in the range of 58 to 60 °C.

`CCOC(=O)c1cnn(-c2ccc(C(=O)O)cc2)c1C(F)(F)F` gave a melting point of 175 to 177 °C. Under `Nc1ncc2c(n1)CCN(Cc1ccccc1)C2` stands 179 to 181 °C. In the case of `CCOC(=O)c1nnn(-c2cccc([N+](=O)[O-])c2)c1N` it was 151 to 153 °C. Regarding `N#Cc1cccc(OCC(=O)O)c1`, the melting point was 123 to 125 °C. Under `Cc1nnc(SCCC(=O)O)[nH]1` stands 131 to 133 °C. As for `Nc1nc(-c2cccc(Br)c2)cs1`, the melting point lay within 121 to 125 °C. Under `Cc1cc(Cl)nc2c(C(C)C)cccc12` stands 43 to 45 °C; under `N#CCc1ccc(Oc2ccc(C(=O)O)cc2)cc1`, 183 to 185 °C. In turn, `N#Cc1cccc(/C=C/C(=O)O)c1` came in with a melting point of 246 to 248 °C. Turning to `NC(=O)c1c(-c2ccc(C(F)(F)F)cc2)csc1N`, the melting point lay in the range of 158 to 160 °C. In the case of `CCC(=O)c1ccc2c(c1)CC(=O)N2C` it was 205 to 207 °C; in that of `Oc1ccc(CNCc2ccco2)cc1`, 107 to 109 °C. Under `CSCc1cccc(C(=O)O)c1` stands 78 to 80 °C.

Consider `O=C1CCOc2c(Br)cccc21`, for which the melting point is 62 to 64 °C.

`O=Cc1ccc(OCCC(=O)O)cc1` showed a melting point of 132 to 134 °C. With `ClCc1coc(-c2ccc(I)cc2)n1`, the melting point was 129 to 131 °C. `Nc1nc2cc(Br)ccc2[nH]1` came in with a melting point of 148 to 150 °C. `CCC(Br)C(=O)c1ccc(OC)cc1` (stereo not given): the melting point is 49 to 51 °C. In turn, `CC(O)c1cnc(-c2ccc(Br)cc2)s1` (stereo not given) returned a melting point of 77 to 79 °C.

`CCOc1ccc(C(=O)CBr)cc1` displayed a melting point of 57 to 59 °C. With `CC(Cl)C(=O)Nc1ncc(Cl)cc1Cl` (stereo not given), the melting point is 113 to 115 °C.

Compound `NNC(=O)Cc1ccc2ccccc2c1` came in with a melting point of 189 to 191 °C.

Turning to `Cc1cc2n(n1)C(=O)CC(=O)N2`, the melting point fell in the range of 219 to 221 °C.

`C=CCn1cc(C(=O)O)c2ccccc21` displayed a melting point of 159 to 161 °C.

On to `CC1(C)CC(C)(C)c2cc(O)ccc21`, for which the melting point fell in the range of 99 to 101 °C. Take `Clc1cnc(Cl)c(-c2ccccc2)n1`: the melting point lay in the range of 52 to 54 °C. In turn, `COc1ccc(C2C(C(N)=O)CC(=O)N2C)cc1` (stereo not given) yielded a melting point of 208 to 210 °C.

With `Nc1nonc1C(=O)N1CCCCC1`, the melting point is 86 to 88 °C. With `NC(=O)c1ccc(C(F)(F)F)nc1`, the melting point lay within 185 to 187 °C. `Cc1ccc(C(=O)Nc2ccccc2)cc1N` gave a melting point of 151 to 153 °C. Under `COc1ccc2c(ccn2CC(=O)O)c1` stands 140 to 142 °C.

Take `Cc1cc(C(=O)CCl)c(C)n1-c1nccs1`: the melting point lay within 85 to 95 °C. Regarding `COc1ccccc1NC(=O)COc1ccc(C(=O)O)cc1OC`, the melting point is 184 to 186 °C. Compound `CCN(CC)S(=O)(=O)c1cc(C(=O)O)ccc1OC` displayed a melting point of 182 to 184 °C. In turn, `Cc1nc2cc(C(F)(F)F)ccc2s1` gave a melting point of 63 to 65 °C. Turning to `CC(Cl)C(=O)NCC(=O)Nc1ccc(F)c(F)c1F` (stereo not given), the melting point was 128 to 130 °C. In the case of `COc1ccc(Br)c(S(N)(=O)=O)c1` it was 119 to 121 °C. The compound `O=C(O)CCn1nc(-c2cccs2)oc1=O` had a melting point of 146 to 148 °C. In turn, `O=c1cc(CCl)occ1O` gave a melting point of 166 to 168 °C. For the compound `Cc1ccnc(NC2CCCCC2)c1`, the melting point lay in the range of 75 to 77 °C.

Consider `COc1ccc(C#N)cc1N`, for which the melting point lay in the range of 74 to 76 °C.

Consider `O=CCN1C(=O)COc2ccccc21`, for which the melting point was 97 to 99 °C. `COC(=O)C1CCCc2[nH]ncc21` (stereo not given) gave a melting point of 84 to 86 °C. In the case of `N#Cc1cnn(-c2cccc(C(=O)O)c2)c1N` it was 286 to 288 °C.

Consider `O=C1COc2cc(Br)ccc2N1`, for which the melting point lay within 192 to 194 °C.

The compound `CC(N)(C(N)=O)c1ccccc1` (stereo not given) showed a melting point of 114 to 116 °C. `Nc1ccc(-c2ccc[nH]2)cc1` showed a melting point of 120 to 122 °C. `Cn1ncc(C(=O)O)c1C1CC1`: the melting point lay within 104 to 106 °C. `CNCCOc1ccc(OCc2ccccc2)cc1` displayed a melting point of 44 to 46 °C. Take `CCC(=O)Nc1cccc(CN)c1`: the melting point was 56 to 58 °C. In the case of `COc1ccc(C=O)c(Cl)c1` it was 60 to 62 °C; in that of `Cn1c(=O)c(Br)c(N)n(Cc2ccccc2)c1=O`, 210 to 212 °C. Under `CCOc1ccccc1OCCCC(=O)O` stands 66 to 68 °C; under `CCOC(=O)COc1cccc(C(=O)O)c1`, 119 to 121 °C. Regarding `COC(C)c1nc(C)c(C(=O)O)s1` (stereo not given), the melting point was 126 to 128 °C. `CCNS(=O)(=O)c1ccc2c(c1)NCC2` displayed a melting point of 112 to 114 °C.

`Nc1c(C(=O)O)cnc2ccccc12`: the melting point fell in the range of 303 to 305 °C. In the case of `CNC(=O)COc1cccc(Br)c1` it was 94 to 96 °C; in that of `O=[N+]([O-])c1ccc(S(=O)(=O)CCO)cc1`, 128 to 130 °C. In turn, `NC(=O)c1cc(N)ccc1Cl` gave a melting point of 153 to 155 °C. Turning to `CC(C)S(=O)(=O)Nc1ccccc1F`, the melting point lay within 52 to 54 °C. Consider `Cc1nn(Cc2ccc(F)cc2)c2sc(C(=O)O)cc12`, for which the melting point was 227 to 229 °C. As to `CNCC(=O)Nc1ccc(Cl)cc1`, the melting point lay in the range of 58 to 60 °C. In the case of `Cc1c(Cl)cccc1N1C(=O)C=CC1=O`, the melting point is 68 to 70 °C. In the case of `COc1ccc(Br)c(C(=O)O)c1N` it was 139 to 141 °C. In the case of `CCCC(=O)N1CCCC(C(=O)O)C1` (stereo not given) it was 96 to 98 °C.

`CNC(=O)C1CN(Cc2ccccc2)CCO1` (stereo not given): the melting point is 113 to 115 °C. In the case of `COCc1ccc(C(=O)O)cc1OC` it was 164 to 166 °C; in that of `NNc1cccc(F)c1F`, 61 to 63 °C. `CC(Nc1nc2ccccc2s1)C(=O)NN` (stereo not given) registered a melting point of 174 to 176 °C. As for `CC(=O)Nc1ccc(O)c(S(=O)(=O)Cl)c1`, the melting point fell in the range of 164 to 166 °C. Under `O=C(c1cccnc1)C1CCOCC1` stands 43 to 45 °C; under `Cn1ncnc1N`, 180 to 182 °C. `CCC(C)NS(=O)(=O)c1cccc(N)c1` (stereo not given) had a melting point of 89 to 91 °C. In the case of `Nc1ccc(S(=O)(=O)NCc2ccc(Cl)cc2)cc1`, the melting point is 174 to 176 °C. In turn, `Cc1cc(F)ccc1NC(=O)C=NO` returned a melting point of 132 to 134 °C.

On to `FC(F)(F)c1nc(S)c2ccccc2n1`, for which the melting point lay in the range of 214 to 216 °C.

For the compound `NC(Cc1cccs1)=NO`, the melting point is 79 to 82 °C. On to `Cc1cc(C(=O)C(C)Cl)c(C)n1-c1ccccc1` (stereo not given), for which the melting point was in the range of 78 to 82 °C. Take `COc1cc(CN)cc(OC)c1`: the melting point lay within 35 to 37 °C. Under `COc1ccccc1-c1cc(N)[nH]n1` stands 94 to 96 °C.

`CCOc1ccc([N+](=O)[O-])cc1CO` yielded a melting point of 102 to 104 °C. `O=C(O)C1(O)CCN(Cc2ccccc2)C1` (stereo not given) registered a melting point of 173 to 175 °C. Compound `CC(C)(C)OC(=O)CNC(=O)CCl` showed a melting point of 66 to 68 °C.

`Cc1ccc(-c2cnc(CCl)o2)cc1` registered a melting point of 58 to 60 °C. `NC(=O)COc1ccc(O)cc1` had a melting point of 154 to 156 °C. In turn, `O=C(O)CCS(=O)c1ccc2c(c1)OCCCO2` (stereo not given) returned a melting point of 114 to 116 °C.

Take `CCC1(C)NC(=O)N(CC(=O)O)C1=O` (stereo not given): the melting point fell in the range of 156 to 158 °C. `OC1CCc2c(Cl)cccc21` (stereo not given) registered a melting point of 69 to 71 °C. In turn, `CC(N)c1ccc(OCC(N)=O)cc1` (stereo not given) returned a melting point of 127 to 129 °C.

In the case of `O=C(O)CSc1ccc(F)cc1F`, the melting point lay within 73 to 75 °C.

By melting point is commonly meant the temperature of the solid-liquid transition.
